{"source": "patent US20240300882A1", "about": "“CRYSTALLINE FORMS OF A DIFFUSION ENHANCING COMPOUND” (DIFFUSION PHARMACEUTICALS LLC, priority 2021, published 2024)", "assay_type_in_all_cases": "physicochemical", "key": {"[1]": {"test": "Equilibrium solubility shake-flask method, 24-hour slurry, XRPD result", "conditions": "water and ethanol", "protocol": "Solubility is evaluated using shake-flask method at room temperature. Individual samples are prepared as follows: Approximately 20 mg of TSC Forms A, F, and J are placed in a 1-dram glass vial. To each vial is added 1.5 mL of media. The vials are then placed in an incubation chamber at room temperature with shaking at 150 rpm. After 24 hours the vials are removed and each slurry is vacuum filtered. The mother liquor is diluted 1:10 with the respective media for that sample and analyzed by HPLC. Water used is HPLC grade. Ethanol used in absolute, HPLC grade."}, "[2]": {"test": "XRPD under a nitrogen stream of variable relative humidity", "protocol": "Form H from Example 25 is measured under different relative humidities. The humidity measurements are made on a powder diffractometer X'Pert, PANalytical (G.16.SYS.S006) using CuKα radiation. Measuring conditions: tube power 40 kV/40 mA, scan range 1°-50° (2θ), step size 0.02°, time per step 2.4 seconds. The sample is measured in a 0.4 mm deep sample holder in a closed chamber under a stream of nitrogen of variable relative humidity (RH). The humidity of the nitrogen stream is controlled by varying the relative amount of humid and dry nitrogen gas. The sample is first conditioned one hour with a dry nitrogen stream and then a first XPRD is taken. The humidity of the gas stream is then changed to 50% RH and the sample is conditioned three hours to the new RH prior to a second XRPD measurement. After 10 more hours with 50% RH, a third XRPD is taken."}, "[3]": {"test": "Solid-state stability in relative humidity jars, analysed by XRPD", "conditions": "up to 4 weeks at 25° C./60% RH and 40° C./75% RH", "protocol": "The solid-state stability of TSC Crystalline Forms A and F are evaluated at 25° C./60% relative humidity (RH) and 40° C./75% RH.\nTo a 1-dram glass vial is added approximately 20 mg of TSC Crystalline Form A or F. The open vials are placed in relative humidity (RH) jars. The RH in each jar is controlled by a saturated salt solution (sodium bromide for 60% RH and sodium chloride for 75% RH). The RH jars are purged with nitrogen and sealed. The sealed RH jars are placed in ovens set at the appropriate temperatures. The materials are analyzed at given time points by XRPD."}, "[4]": {"test": "Heating to 100° C. in a TG furnace, then XRPD", "conditions": "Heat to 100° C., hold 1 minute", "protocol": "Crystalline Forms A and B are heated to 100° C. in a TG furnace, held at that temperature for 1 minute, and immediately analyzed by XRPD."}, "[5]": {"test": "Dynamic vapor sorption (DVS) analysis", "conditions": "for Form by XRPD after DVS analysis: exposed up to 95% RH and down to 5% RH", "protocol": "DVS analysis is carried out using a TA Instruments Q5000 Dynamic Vapor Sorption analyzer. The instrument is calibrated with standard weights and a sodium bromide standard for humidity. Approximately 10-25 mg (e.g., 20 mg) or 5-15 mg of sample is loaded into a metal-coated quartz pan for analysis. The sample is analyzed at 25° C. with a maximum equilibration time of one hour in 10% relative humidity (RH) steps from 5 to 95% RH (adsorption cycle) and from 95 to 5% RH (desorption cycle). The movement from one step to the next occurred either after satisfying the equilibrium criterion of 0.01% weight change or, if the equilibrium criterion is not met, after one hour. The percent weight change values are calculated using Microsoft Excel®. The temperature for the DVS analysis may impact the outcome of the results."}, "[6]": {"test": "Competitive slurry experiments, wet solid analysed by XRPD", "protocol": "Sample preparation is carried out in a nitrogen glove box. Saturated solutions of TSC from Example 2 are prepared at a given temperature. The volume of each solution is about 1.5 mL and it is deemed saturated if excess solid remains after stirring for 2 hours. The sample is then centrifuged and the mother liquor is transferred to a vial containing equal amounts of each polymorph, about 10 mg each. The vials are capped and sealed with parafilm, and the slurries are then stirred magnetically at a given temperature for 5 days. Each sample is then centrifuged, the mother liquor decanted, and the wet solid immediately analyzed by XRPD.\nCompetitive slurry experiments involving Crystalline Forms A through E are carried out at three different temperatures using three different solvent systems (Table 2). […] At 50° C., the slurries in 1:1 acetone:water and 1:1 acetonitrile:water produce a mixture of Crystalline Forms A and B and Crystalline Form A, respectively. Although both solvent systems contain significant amounts of water, the slurries are carried out at a temperature at which Crystalline Form B is known to lose volatiles. […] That is probably the reason that Crystalline Form A results from the higher-temperature slurries in water-containing solvents.\nAdditional competitive slurry experiments are carried out between Crystalline Forms A, B, and F (Table 3). The data are consistent with the results in Example 10. […] The elevated temperature aqueous slurry data is also consistent with Example 10. Crystalline Form A is observed in aqueous media at 50° C. In the case of the 1:1 ethanol:water slurry, the XRPD pattern of the resulting material matches that of Crystalline Form A but contains several unidentified peaks."}, "[7]": {"test": "Physical stability of Crystalline Form F under slurry conditions, XRPD", "conditions": "anhydrous ethanol and ethanol with 1 and 5% water, ambient temperature, up to 4 days", "protocol": "The physical stability of Crystalline Form F is evaluated when it is slurried in three solvent systems (anhydrous ethanol and ethanol containing both 1 and 5% water by volume) at ambient temperature.\nTo a 1-dram glass vial is added approximately 20 mg of TSC Crystalline Form F and 1 mL of a given solvent. The slurry is stirred at room temperature for a given amount of time. The vial is then centrifuged, the mother liquor decanted, and the wet solid is analyzed by XRPD."}}, "data": [{"compound": "trans sodium crocetinate [Crystalline Form J]", "values": [{"measurement": "Form after 24-hour slurry experiments", "setting": "[1]", "result": "exhibits form conversion"}]}, {"compound": "CC(/C=C/C=C(\\C)C(=O)[O-])=C\\C=C\\C=C(C)\\C=C\\C=C(/C)C(=O)[O-].[Na+].[Na+]", "note": "[Form H, trans sodium crocetinate]", "values": [{"measurement": "Form on exposure to different relative humidities", "setting": "[2]", "result": "changes form"}, {"measurement": "Form by XRPD after humidity exposure", "setting": "[2]; 0% RH, dry nitrogen stream, one hour", "result": "Form G"}, {"measurement": "Form by XRPD after humidity exposure", "setting": "[2]; 50% RH, 10 more hours (third XRPD)", "result": "no difference between the second and third XRPDs"}, {"measurement": "Form by XRPD after humidity exposure", "setting": "[2]; 50% RH, three hours", "result": "Form E"}]}, {"compound": "trans sodium crocetinate [Crystalline Form A]", "values": [{"measurement": "Solid-state stability of the form", "setting": "[3]", "result": "remain unchanged"}, {"measurement": "XRPD pattern after heating", "setting": "[4]", "result": "remains unchanged"}, {"measurement": "maximum water absorption", "setting": "[5]; DVS, 25° C., 5 to 95% RH", "result": "about 2.5%"}, {"measurement": "Form by XRPD after DVS analysis", "setting": "[5]", "result": "remains unchanged"}, {"measurement": "Form after 24-hour slurry experiments", "setting": "[1]", "result": "remain unchanged"}, {"measurement": "Relative stability of the forms", "setting": "[6]; between 2 and 50° C. in methanol", "result": "more stable than Forms B through E"}, {"measurement": "Relative stability of the forms", "setting": "[6]; between 2 and 55° C. in absolute ethanol and absolute ethanol containing either 10% methanol or toluene", "result": "more stable than Forms B through F"}, {"measurement": "Relative stability of the forms", "setting": "[6]; non-aqueous conditions", "result": "most stable form"}]}, {"compound": "CC(/C=C/C=C(\\C)C(=O)[O-])=C\\C=C\\C=C(C)\\C=C\\C=C(/C)C(=O)[O-].[Na+].[Na+]", "note": "[Crystalline Form B, trans sodium crocetinate]", "values": [{"measurement": "XRPD pattern after heating", "setting": "[4]", "result": "converts to Crystalline Form F"}, {"measurement": "Relative stability of the forms", "setting": "[6]; aqueous conditions", "result": "most stable form"}, {"measurement": "Relative stability of the forms", "setting": "[6]; between 2 and 55° C. in 1:1 ethanol:water (v/v)", "result": "more stable than Forms A, C, D, E, and F"}]}, {"compound": "CC(/C=C/C=C(\\C)C(=O)[O-])=C\\C=C\\C=C(C)\\C=C\\C=C(/C)C(=O)[O-].[Na+].[Na+]", "note": "[Example 20, trans sodium crocetinate]", "values": [{"measurement": "Form by XRPD after DVS analysis", "setting": "[5]", "result": "remains unchanged"}]}, {"compound": "trans sodium crocetinate [Crystalline Form F]", "values": [{"measurement": "Solid-state stability of the form", "setting": "[3]", "result": "remain unchanged"}, {"measurement": "Form by XRPD after DVS analysis", "setting": "[5]", "result": "remains unchanged"}, {"measurement": "Form after 24-hour slurry experiments", "setting": "[1]", "result": "remain unchanged"}, {"measurement": "Physical stability of the form when slurried", "setting": "[7]", "result": "remains unchanged"}]}]}
